Results: patent US20130310379A1, “MODULATORS OF METHYL MODIFYING ENZYMES, COMPOSITIONS AND USES THEREOF” (CONSTELLATION PHARMACEUTICALS, priority 2010, published 2013)

molecular target: EZH2 (Homo sapiens, UniProt Q15910); experiment: EZH2 assay: rPRC2 with biotinylated oligonucleosome substrates and 3H SAM, FlashPlate scintillation counting, IC50; format: biochemical; conditions: rPRC2, biotinylated oligonucleosome substrates, 3H SAM; read-out: EZH2 IC50
Description: Assays were carried out by mixing rPRC2 together with biotinylated oligonucleosome substrates in the presence of the radio-labeled enzyme co-factor, S-adenosyl-L-methionine (^3H SAM) (Perkin Elmer) and monitoring the enzymatically mediated transfer of tritiated methyl groups from ^3H SAM to histone lysine residues. The amount of resulting tritated methylhistone product was measured by first capturing the biotinylated oligonuclesomes in streptavidin (SAV) coated FlashPlates (Perkin Elmer), followed by a wash step to remove un-reacted ^3H SAM, and then counting on a TopCount NXT 384 well plate scintillation counter (Perkin Elmer). The final assay conditions for EZH2 were as follows: 50 mM Tris Buffer pH 8.5, 1 mM DTT, 69 uM Brij-35 detergent, 5.0 mM MgCl2, 0.1 mg/mL BSA, 0.2 uM ^3H SAM, 0.2 uM biotinylated oligonucleosomes, 3.6 uM H3K27me3 peptide and 2 nM EZH2.
Compound IC50 measurements were obtained as follows: Compounds were first dissolved in 100% DMSO as 10 mM stock solutions. […] A 12.5 uL volume of the HMT enzyme, H3K27me3 peptide and oligonucleosome substrate in assay buffer was added to each well of the assay plate using a Multidrop Combi (ThermoFisher). Compounds were pre-incubated with the enzyme for 20 min, followed by initiation of the methyltransferase reaction by addition of 12.5 uL of 3H SAM in assay buffer (final volume=25 uL). The final concentrations of compounds ranged from a top default concentration of 80 uM down to 0.16 uM in ten 2-fold dilution steps. Reactions were carried out for 60 minutes and quenched with 20 uL per well of 1.96 mM SAH, 50 mM Tris PH 8.5, 200 mM EDTA. Stopped reactions were transferred to SAV coated Flashplates (Perkin Elmer), incubated for 120 min, washed with a plate washer, and then read on the TopCount NXT (1.0 min/well) to measure the amount of methylhistone product formed during the reaction. The amount of methylhistone product was compared with the amount of product formed in the 0% and 100% inhibition control wells allowing the calculation of % Inhibition in the presence of the individual compounds at various concentrations. IC50's were computed using a 4 parameter fit non-linear curve fitting software package (XLFIT, part of the database package, ActivityBase (IDBS)) where the four parameters were IC50, Hill slope, pre-transitional baseline (0% INH), and post-transitional baseline (100% INH); with the latter two parameters being fixed to zero and 100%, respectively, by default.

Sequence of EZH2 (Q15910 whole entry): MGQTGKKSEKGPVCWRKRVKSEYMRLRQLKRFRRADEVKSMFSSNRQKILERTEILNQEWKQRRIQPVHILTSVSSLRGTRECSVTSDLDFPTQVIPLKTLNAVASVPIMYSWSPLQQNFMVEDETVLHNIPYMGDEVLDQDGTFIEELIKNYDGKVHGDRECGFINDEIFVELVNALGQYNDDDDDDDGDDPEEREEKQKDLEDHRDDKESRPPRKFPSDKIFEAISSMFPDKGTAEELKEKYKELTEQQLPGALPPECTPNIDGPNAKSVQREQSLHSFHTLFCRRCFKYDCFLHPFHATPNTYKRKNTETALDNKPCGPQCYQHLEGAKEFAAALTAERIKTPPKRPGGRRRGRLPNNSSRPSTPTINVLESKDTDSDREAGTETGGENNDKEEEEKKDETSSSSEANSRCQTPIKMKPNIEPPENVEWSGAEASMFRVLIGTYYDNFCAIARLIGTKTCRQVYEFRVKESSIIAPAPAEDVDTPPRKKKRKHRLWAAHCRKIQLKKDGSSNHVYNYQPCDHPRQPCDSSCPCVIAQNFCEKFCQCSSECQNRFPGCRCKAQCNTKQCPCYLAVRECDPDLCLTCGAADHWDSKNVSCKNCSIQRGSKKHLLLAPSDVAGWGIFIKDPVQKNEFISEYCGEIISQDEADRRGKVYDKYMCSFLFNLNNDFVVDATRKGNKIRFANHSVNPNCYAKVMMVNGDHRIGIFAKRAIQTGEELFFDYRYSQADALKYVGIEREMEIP
Sequence of EZH2 (O75530 whole entry partner): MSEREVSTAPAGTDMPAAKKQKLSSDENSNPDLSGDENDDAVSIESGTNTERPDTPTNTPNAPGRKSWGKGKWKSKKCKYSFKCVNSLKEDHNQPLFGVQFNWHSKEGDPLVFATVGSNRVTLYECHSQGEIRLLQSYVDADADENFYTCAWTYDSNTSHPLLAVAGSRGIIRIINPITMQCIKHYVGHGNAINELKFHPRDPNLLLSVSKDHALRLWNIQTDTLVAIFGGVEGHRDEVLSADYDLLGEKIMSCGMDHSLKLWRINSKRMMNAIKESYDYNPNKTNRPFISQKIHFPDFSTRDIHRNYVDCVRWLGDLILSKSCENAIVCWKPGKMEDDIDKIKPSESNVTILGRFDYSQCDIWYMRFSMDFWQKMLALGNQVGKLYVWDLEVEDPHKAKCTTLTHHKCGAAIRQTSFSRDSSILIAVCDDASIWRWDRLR
Sequence of EZH2 (Q15022 whole entry partner): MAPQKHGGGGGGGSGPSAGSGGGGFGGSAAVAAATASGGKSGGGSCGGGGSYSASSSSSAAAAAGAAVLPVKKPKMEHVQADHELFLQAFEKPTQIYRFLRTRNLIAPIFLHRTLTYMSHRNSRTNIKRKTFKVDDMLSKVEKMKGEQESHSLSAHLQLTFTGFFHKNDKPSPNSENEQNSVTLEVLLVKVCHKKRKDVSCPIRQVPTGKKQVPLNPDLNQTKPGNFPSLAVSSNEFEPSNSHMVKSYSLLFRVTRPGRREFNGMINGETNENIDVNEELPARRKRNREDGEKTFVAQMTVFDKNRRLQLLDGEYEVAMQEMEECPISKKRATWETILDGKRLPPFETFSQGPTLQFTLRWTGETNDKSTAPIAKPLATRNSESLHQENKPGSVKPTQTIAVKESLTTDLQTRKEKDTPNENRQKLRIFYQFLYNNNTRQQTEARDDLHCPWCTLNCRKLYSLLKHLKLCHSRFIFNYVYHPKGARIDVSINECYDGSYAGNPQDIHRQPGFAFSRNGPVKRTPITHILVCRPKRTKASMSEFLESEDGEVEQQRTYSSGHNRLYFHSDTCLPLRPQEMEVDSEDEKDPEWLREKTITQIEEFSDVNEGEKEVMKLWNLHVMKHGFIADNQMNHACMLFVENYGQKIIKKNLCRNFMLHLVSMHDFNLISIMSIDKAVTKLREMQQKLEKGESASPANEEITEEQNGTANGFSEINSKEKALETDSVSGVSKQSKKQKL

| SMILES | IC50 |
| --- | --- |
| COC(=O)c1cccc(COc2ccc(C(=O)NC3CC(C)(C)NC(C)(C)C3)cc2)c1 [Compound I-53] | 20 to 80 µM |
| Cc1cccc(OCc2ccc(C(=O)NC3CC(C)(C)NC(C)(C)C3)cc2)c1C [Compound I-54] | 20 to 80 µM |
| COc1ncccc1-c1cccc(OCc2ccc(C(=O)NC3CC(C)(C)NC(C)(C)C3)cc2)c1 [Compound I-55] | 20 to 80 µM |
| CC1(C)CC(NC(=O)c2ccc(Oc3ccccn3)cc2)CC(C)(C)N1 [Compound I-56] | 20 to 80 µM |
| COc1ccccc1Oc1ccc(C(=O)NC2CC(C)(C)NC(C)(C)C2)cc1 [Compound I-57] | 20 to 80 µM |
| Cc1ncccc1-c1cccc(OCc2ccc(C(=O)NC3CC(C)(C)NC(C)(C)C3)cc2)c1 [Compound I-58] | 20 to 80 µM |
| CC1(C)CC(NC(=O)c2ccc(COc3cccc(F)c3)cc2)CC(C)(C)N1 [Compound I-59] | 20 to 80 µM |
| Cc1cccc(Oc2ccc(C(=O)NC3CC(C)(C)NC(C)(C)C3)cc2)c1 [Compound I-60] | 20 to 80 µM |
| CC1(C)CC(NC(=O)c2ccc(-c3ccccc3)cc2)CC(C)(C)N1 [Compound I-61] | 20 to 80 µM |
| CC1(C)CC(NC(=O)c2ccc(COCc3ccccc3)cc2)CC(C)(C)N1 [Compound I-62] | 20 to 80 µM |
| COc1ccc(OCc2ccc(C(=O)NC3CC(C)(C)NC(C)(C)C3)cc2)cc1 [Compound I-63] | 20 to 80 µM |
| CC1(C)CC(NC(=O)c2ccc(Oc3ccccc3)nc2)CC(C)(C)N1 [Compound I-64, 6-Phenoxy-N-(2,2,6,6-tetramethylpiperidin-4-yl)nicotinamide] | 20 to 80 µM |
| CC1(C)CC(NC(=O)c2ccc(COc3cccc(-c4ccc(=O)[nH]c4)c3)cc2)CC(C)(C)N1 [Compound I-65] | 20 to 80 µM |
| CC1(C)CC(NC(=O)c2ccc(COc3ccnc(Cl)c3)cc2)CC(C)(C)N1 [Compound I-66] | 20 to 80 µM |
| CC1(C)CC(NC(=O)c2ccc(COc3ccc(C#N)cc3)cc2)CC(C)(C)N1 [Compound I-67] | 20 to 80 µM |
| CC1(C)CC(NC(=O)c2ccc(Oc3ccc(I)cn3)cc2)CC(C)(C)N1 [Compound I-68, 4-(5-Iodopyridin-2-yloxy)-N-(2,2,6,6-tetramethylpiperidin-4-yl)benzamide] | > 80 µM |
| Cc1cccc(C)c1Oc1ccc(C(=O)NC2CC(C)(C)NC(C)(C)C2)cc1 [Compound I-69] | > 80 µM |
| Cc1ccc(OCc2ccc(C(=O)NC3CC(C)(C)NC(C)(C)C3)cc2)nc1 [Compound I-70] | > 80 µM |
| COc1cccc(Oc2ccc(C(=O)NC3CC(C)(C)NC(C)(C)C3)cc2)c1 [Compound I-71] | > 80 µM |
| CN1CCC(N(C)C(=O)c2ccc(Oc3ccccc3)cc2)CC1 [Compound I-72] | > 80 µM |
| CC1(C)CC(NC(=O)c2ccc(Oc3ccc([N+](=O)[O-])cc3)cc2)CC(C)(C)N1 [Compound I-73] | > 80 µM |
| Cc1ccccc1OCc1ccc(C(=O)NC2CC(C)(C)NC(C)(C)C2)cc1 [Compound I-74] | > 80 µM |
| CC1(C)CC(NC(=O)c2ccc(OCc3ccccc3)cc2)CC(C)(C)N1 [Compound I-75] | > 80 µM |
| CC1(C)CC(NC(=O)c2ccc(COc3cccc(C#N)c3)cc2)CC(C)(C)N1 [Compound I-76] | > 80 µM |
| CC1(C)CC(NC(=O)c2ccc(COc3cccnc3Cl)cc2)CC(C)(C)N1 [Compound I-77] | > 80 µM |
| CC1(C)CC(NC(=O)c2ccc(Oc3cnccn3)cc2)CC(C)(C)N1 [Compound I-78] | > 80 µM |
| CC1(C)CC(NC(=O)c2ccc(Oc3ncccn3)cc2)CC(C)(C)N1 [Compound I-79] | > 80 µM |
| CC1(C)CC(NC(=O)c2ccc(COc3ccccn3)cc2)CC(C)(C)N1 [Compound I-80] | > 80 µM |

| SMILES | IC50 |
| --- | --- |
| CC1(C)CC(NC(=O)c2ccc(OCc3ccc([N+](=O)[O-])cc3)cc2)CC(C)(C)N1 [Compound I-81] | > 80 µM |
| CC1(C)CC(NC(=O)c2ccc(Oc3ccc4[nH]ccc4c3)cc2)CC(C)(C)N1 [Compound I-82] | > 80 µM |
| CC1(C)CC(NC(=O)c2ccc(CSc3ccccc3)cc2)CC(C)(C)N1 [Compound I-83] | > 80 µM |
| CC1(C)CC(NC(=O)c2ccc(OCCc3ccccc3)cc2)CC(C)(C)N1 [Compound I-84] | > 80 µM |
| Cc1cccc(OCc2ccc(C(=O)NC3CC(C)(C)NC(C)(C)C3)cc2)n1 [Compound I-85, 4-((6-methylpyridin-2-yloxy)methyl)-N-(2,2,6,6-tetramethylpiperidin-4-yl)benzamide] | > 80 µM |
| CC1(C)CC(NC(=O)c2ccc(Oc3ccc(F)cc3)cc2)CC(C)(C)N1 [Compound I-86] | > 80 µM |
| Cc1ccc(Oc2ccc(C(=O)NC3CC(C)(C)NC(C)(C)C3)cc2)cc1C [Compound I-87] | > 80 µM |
| CC1(C)CC(NC(=O)c2ccc(OCc3cccc(F)c3)cc2)CC(C)(C)N1 [Compound I-88] | > 80 µM |
| Cc1ccc(Oc2ccc(C(=O)NC3CC(C)(C)NC(C)(C)C3)cc2)cn1 [Compound I-89] | > 80 µM |
| CC1(C)CC(NC(=O)c2ccc(OCc3ccccc3F)cc2)CC(C)(C)N1 [Compound I-90] | > 80 µM |
| CC1(C)CC(NC(=O)c2ccc(Oc3ccc(Cl)cc3)cc2)CC(C)(C)N1 [Compound I-91] | > 80 µM |
| Cc1ccc(Oc2ccc(C(=O)NC3CC(C)(C)NC(C)(C)C3)cc2)cc1 [Compound I-92] | > 80 µM |
| CC1(C)CC(NC(=O)c2ccc(Oc3ccc(Br)cc3)cc2)CC(C)(C)N1 [Compound I-93] | > 80 µM |
| CC1(C)CC(NC(=O)c2cccc(Oc3ccccc3)c2)CC(C)(C)N1 [Compound I-94] | > 80 µM |
| CC1(C)CC(NC(=O)c2ccccc2Oc2ccccc2)CC(C)(C)N1 [Compound I-95] | > 80 µM |
| CC(C)NC(=O)c1ccc(Oc2ccccc2)cc1 [Compound I-96] | > 80 µM |
| COc1ccc(Oc2ccc(C(=O)NC3CC(C)(C)NC(C)(C)C3)cc2)cc1 [Compound I-97] | > 80 µM |
| O=C(c1ccc(Oc2ccccc2)cc1)N1CCN(c2ccccc2)CC1 [Compound I-99] | > 80 µM |
| O=C(N[C@H]1CCN(Cc2ccccc2)C1)c1ccc(Oc2ccccc2)cc1 [Compound I-100] | > 80 µM |
| O=C(NCCc1cccnc1)c1ccc(Oc2ccccc2)cc1 [Compound I-102] | > 80 µM |
| CC1(C)CC(NC(=O)c2ccc(Oc3ncccc3C(N)=O)cc2)CC(C)(C)N1 [Compound I-103, 2-(4-(2,2,6,6-Tetramethylpiperidin-4-ylcarbamoyl)phenoxy)nicotinamide] | > 80 µM |
| CC1(C)CC(NC(=O)c2ccc(Nc3ccccc3)nc2)CC(C)(C)N1 [Compound I-104, 6-(Phenylamino)-N-(2,2,6,6-tetramethylpiperidin-4-yl)nicotinamide] | > 80 µM |
| CC1(C)CC(NC(=O)c2cccc(-c3ccccc3)c2)CC(C)(C)N1 [Compound I-105] | > 80 µM |
| CC1(C)CC(NC(=O)c2ccc(CNc3ccccc3)cc2)CC(C)(C)N1 [Compound I-106, 4-((Phenylamino)methyl)-N-(2,2,6,6-tetramethylpiperidin-4-yl)benzamide] | > 80 µM |
| CC1(C)CC(NC(=O)c2ccc(Nc3ccccc3)cc2)CC(C)(C)N1 [Compound I-107] | > 80 µM |
| CN(c1ccccc1)c1ccc(C(=O)NC2CC(C)(C)NC(C)(C)C2)cc1 [Compound I-108, 4-(Methyl(phenyl)amino)-N-(2,2,6,6-tetramethylpiperidin-4-yl)benzamide] | > 80 µM |
| COc1ccnc(Oc2ccc(C(=O)NC3CC(C)(C)NC(C)(C)C3)cc2)n1 [Compound I-109] | > 80 µM |
